# Source: publication PMC4192597, “Antimicrobials, Stress and Mutagenesis” (PLoS Pathogens, 2014)
# Like-named read-outs stand apart in the source and are kept apart here. Ends that are not written are not given here.
# Experiments:
# Assay type in all cases: cell-based, Escherichia coli
# E. coli MG1655 [1] = experiment: Minimal inhibitory concentration (MIC), micro-dilution; conditions: inoculum 2×10^8 cfu/ml, 24 h, liquid MH medium, 37°C
# Procedure: E. coli K-12 MG1655 was used for all experiments, grown in liquid Mueller-Hilton (MH) agar or agarose, unless otherwise indicated. All experiments were carried out at 37°C.
# MICs were determined according to CLSI recommendations by a micro-dilution method with the exception that the inoculum size that was adjusted to 2×10^8 cfu/ml from a regrowth of overnight cultures to be consistent with the mutagenesis experiments. […] Polypropylene non-binding plates (Th. Geyer, Germany) were used for all experiments.
# [2] = tested on: E. coli stress response genes (strain MG1655); experiment: Relative gene expression of stress response genes by quantitative real-time PCR; conditions: for Expression, cpxA (Envelope stress) / Expression, cpxR (Envelope stress) / Expression, dinB (SOS response) / Expression, lexA (SOS response) / Expression, marR (Independent multiple antibiotic resistance) / Expression, oxyR (Oxidative stress) / Expression, phoP (Envelope stress) / Expression, phoQ (Envelope stress) / Expression, recA (SOS response) / Expression, rpoE (Envelope stress) / Expression, rpoS (Sigma S response) / Expression, umuC (SOS response): normalized to arcA, mdoG, tus, Pexiganan 16, Melittin 16, Kanamycin 16, Ciprofloxacin 0.5, Lysozyme 128, Ampicillin 32 μg/ml, three biological replicates; on Result, cpxR: key: NDE: non-differentially expressed, p-value ≥ 0,05; UP: upregulated, p-value ≤ 0,05; DOWN: downregulated, p-value ≤ 0,05; on Result, oxyR: key: NDE: non-differentially expressed, p-value ≥ 0,05; UP: upregulated, p-value ≤ 0,05; DOWN: downregulated, p-value ≤ 0,05; on Result, rpoE: key: NDE: non-differentially expressed, p-value ≥ 0,05; UP: upregulated, p-value ≤ 0,05; DOWN: downregulated, p-value ≤ 0,05
# Procedure: Preparation of each of the six treatments and the control samples was carried out by two operators on three consecutive days, thereby comprising three biological replicates for each of the six experimental and one control groups. To obtain the starting material for the experiment, a fresh bacterial culture was grown from a glycerol stock on Mueller-Hinton (MH) agar plates at 37°C for 18–24 hours. One well-isolated colony per biological replicate was used to inoculate 2 ml of liquid MH (Sigma) in a 10 ml sterile polypropylene tube and incubated at 37°C for 16 hours with mild shaking. The overnight (ON) culture was then diluted 1∶100 in MH, subdivided into seven 10 ml aliquots and incubated in 50 ml-Falcon tubes at 37°C for 2.5 hours at 220 rpm. When the OD600 of bacterial cultures reached 0.5–0.7, respective antibiotics and AMPs were added to a concentration to match with those used in the mutagenesis experiments. These bacterial cultures were incubated for 20 minutes at 37°C with gentle shaking. Two ml of bacterial cultures from each treatment and the control were collected, immediately centrifuged at 10000 g for 2 minutes and the supernatant was removed to stop the treatment. The bacterial pellet was then resuspended in 1 ml MH, followed by an addition of 1 ml of RNAprotect Bacteria Reagent (Qiagen), 5 minutes incubation and centrifugation at 10000 g for 2 minutes at room temperature. The supernatant was discarded and the bacterial pellet was immediately frozen and stored at −80°C until RNA extraction.
# Total RNA was isolated using RNeasy kit (Qiagen) according to the manufacturer's instructions and eluted in 50 µl of RNase-free water. The nucleic acid yield and purity were determined by measuring the optical density at A260/280 using a Nanodrop spectrophotometer (Thermo Scientific). RNA samples were treated with TURBO DNase (Life Technologies). Briefly, ten µg of RNA were used in a total volume of 500 µl containing 20 units of TURBO DNase, incubated for 30 minutes at 37°C, immediately followed by RNeasy (Qiagen) cleanup and elution in 30 µl of RNase-free water. Following DNase treatment, RNA integrity was assessed using Agilent RNA 6000 Nano kit and 2100 Bioanalyzer instrument (both Agilent Technologies).
# High-Capacity cDNA Reverse Transcription Kit with RNase Inhibitor (Applied Biosystems) was used for cDNA synthesis. Initially, to ensure linear conversion of the transcripts, the dynamic range of reverse transcription reaction was tested by performing a standard curve with cDNA, synthesised using various input amounts of pooled RNA. Total RNA (250 ng per reaction) and random primers were used for cDNA synthesis. To obtain sufficient amount of cDNA, several batches of 20 µl RT reactions were pooled, diluted 50-fold with RNase-free water and stored in single-use aliquots at −80°C until further use. All 21 samples were tested for presence of contaminating genomic DNA by running the mdoG assay with cDNA and the respective no reverse transcription (−RT) controls.
# Escherichia coli strain K-12 substrain MG1655 complete genome (accession U00096) sequence was downloaded from NCBI database (www.ncbi.nlm.nih.gov) and used for primer design. Target sequence accession number, location of the amplicon, amplicon length and primer sequences for each assay can be found in table S2. Primers were designed using Primer Express software (Applied Biosystems) and optimized for annealing temperature of 60°C. Each primer pair and amplicon were checked for secondary structure formation using Oligo Tool (Integrated DNA technologies, http://eu.idtdna.com/analyzer/Applications/OligoAnalyzer/).
# E. coli MG1655 [3] = experiment: Luria-Delbrück fluctuation assay, mutation rate (rifampicin resistance); conditions: concentrations ranging from 0.5 to 4 µg/ml (Figure S1)
# Procedure: We first investigated the mutation rates of E. coli using a Luria-Delbrück fluctuation test. We used the Escherichia coli strain MG1655 and the concentration of all antimicrobials was adjusted to limit bacterial growth to 50% in four hours of treatment.
# The duration of treatment was set to 4 hours for all antimicrobials, and the concentrations were adjusted to obtain around 50% of inhibition of grow in comparison to the a non-treated control. Three ml of exponentially growing culture of E. coli MG1655 (∼2×10^8 cells/ml) were centrifuged at 4000 g for 10 minutes and re-suspended in the same volume of MH with different concentrations of antimicrobials at 37°C with shaking (200 rpm). After incubation, the cultures were centrifuged for 10 min at 4000 g. The pellet was re-suspended, washed twice with MH and re-suspended in 3 ml of fresh medium and incubated overnight (16 h) at 37°C with shaking. This step is necessary to resolve the filaments that some antimicrobials induce due to their toxic action and allow recovery of cells under stress. Cultures were diluted and plated to determine the number of colony forming units in MH agar plates. The number of mutants was estimated by the number of colonies growing on rifampicin (100 µg/ml). […]
# We also assessed if different AMP concentrations (Fig. S1) or different inoculum sizes (10^2, 10^4, 10^6, 10^8 cfu/ml) influenced mutation rates (Fig. S2).
# E. coli MG1655 [4] = experiment: microbe, parasite or virus in culture; conditions: 4 hours, 50% reduction of CFUs vs control, Mueller Hinton Broth, 37°C, five replicates, repeated twice
# Procedure: The MIC50s for all antimicrobials were determined by inoculating strains grown to mid-log phase into the wells of a 96-microwell plate. Approximately 10^2 cells from overnight cultures were inoculated into tubes containing 10 ml of Mueller Hinton Broth medium, and the tubes were incubated at 37°C with strong shaking until the mid-log phase of growth (approximately 10^8 cells/ml). […] The plates were incubated at 37°C for 4 h with continuous shaking in a plate reader (Synergy 2, BioTeK). After four hours, aliquots from wells with OD^600 readings ranging from 10 to 90% values in comparison with the control, were serially diluted in sterile 0.9% NaCl, and incubated during 1 hour to allow the resolution of filaments as consequence of SOS activation, if any. Bacterial suspensions were plated in Mueller Hinton Broth agar plates to estimate the viability as colony forming units (CFUs). Five replicates per concentration were prepared and the experiments were repeated twice.
# [5] = qPCR, 20 minutes exposure vs non-treated bacteria
# [6] = qPCR, 20 minutes exposure vs non-treated bacteria, REST 2009 randomisation test
compound,measurement,setting,value
GIGKFLKKAKKFGKAFVKILKK-NH2 (C-terminus assumed) [Pexiganan],MIC,E. coli MG1655 [1],2 µg/mL
same,"Result, cpxA",[2],NDE
same,"Result, cpxR",[2],NDE
same,"Result, dinB",[2],NDE
same,"Result, lexA",[2],NDE
same,"Result, marR",[2],UP (4.05-fold)
same,"Result, oxyR",[2],NDE
same,"Result, phoP",[2],UP (3.07-fold)
same,"Result, phoQ",[2],UP (2.45-fold)
same,"Result, recA",[2],NDE
same,"Result, rpoE",[2],NDE
same,"Result, rpoS",[2],NDE
same,"Result, umuC",[2],NDE
same,"overexpression of three envelope stress genes (marR, phoP and phoQ)","[2]; qPCR, 20 minutes exposure",overexpression
same,"Expression, cpxA (Envelope stress)",[2]; [5],0.893
same,"Expression, cpxR (Envelope stress)",[2]; [5],0.846
same,"Expression, dinB (SOS response)",[2]; [5],1.114
same,"Expression, lexA (SOS response)",[2]; [5],1.049
same,"Expression, marR (Independent multiple antibiotic resistance)",[2]; [5],4.048
same,"Expression, oxyR (Oxidative stress)",[2]; [5],1.187
same,"Expression, phoP (Envelope stress)",[2]; [5],3.074
same,"Expression, phoQ (Envelope stress)",[2]; [5],2.447
same,"Expression, recA (SOS response)",[2]; [5],0.733
same,"Expression, rpoE (Envelope stress)",[2]; [5],1.108
same,"Expression, rpoS (Sigma S response)",[2]; [5],1.353
same,"Expression, umuC (SOS response)",[2]; [5],0.925
same,mutation rates over a gradient of sub-inhibitory to inhibitory concentrations,E. coli MG1655 [3],did not change
CC[C@H](C)[C@H](NC(=O)CN)C(=O)NCC(=O)N[C@@H](C)C(=O)N[C@H](C(=O)N[C@@H](CC(C)C)C(=O)N[C@@H](CCCCN)C(=O)N[C@H](C(=O)N[C@@H](CC(C)C)C(=O)N[C@H](C(=O)N[C@H](C(=O)NCC(=O)N[C@@H](CC(C)C)C(=O)N1CCC[C@H]1C(=O)N[C@@H](C)C(=O)N[C@@H](CC(C)C)C(=O)N[C@H](C(=O)N[C@@H](CO)C(=O)N[C@@H](Cc1c[nH]c2ccccc12)C(=O)N[C@H](C(=O)N[C@@H](CCCCN)C(=O)N[C@@H](CCCNC(=N)N)C(=O)N[C@@H](CCCCN)C(=O)N[C@@H](CCCNC(=N)N)C(=O)N[C@@H](CCC(N)=O)C(=O)N[C@@H](CCC(N)=O)C(N)=O)[C@@H](C)CC)[C@@H](C)CC)[C@@H](C)O)[C@@H](C)O)C(C)C)C(C)C [Melittin],"Result, cpxA",[2]; [6],NDE
same,"Result, cpxR",[2]; [6],NDE
same,"Result, dinB",[2]; [6],NDE
same,"Result, lexA",[2]; [6],NDE
same,"Result, marR",[2]; [6],NDE
same,"Result, oxyR",[2]; [6],NDE
same,"Result, phoP",[2]; [6],NDE
same,"Result, phoQ",[2]; [6],NDE
same,"Result, recA",[2]; [6],NDE
same,"Result, rpoE",[2]; [6],NDE
same,"Result, rpoS",[2]; [6],NDE
same,"Result, umuC",[2]; [6],NDE
same,"Expression, cpxA (Envelope stress)",[2]; [5],1.295
same,"Expression, cpxR (Envelope stress)",[2]; [5],0.953
same,"Expression, dinB (SOS response)",[2]; [5],0.991
same,"Expression, lexA (SOS response)",[2]; [5],1.1
same,"Expression, marR (Independent multiple antibiotic resistance)",[2]; [5],0.743
same,"Expression, oxyR (Oxidative stress)",[2]; [5],1.337
same,"Expression, phoP (Envelope stress)",[2]; [5],0.857
same,"Expression, phoQ (Envelope stress)",[2]; [5],0.87
same,"Expression, recA (SOS response)",[2]; [5],1.12
same,"Expression, rpoE (Envelope stress)",[2]; [5],1.197
same,"Expression, rpoS (Sigma S response)",[2]; [5],0.972
same,"Expression, umuC (SOS response)",[2]; [5],0.926
same,mutation rates over a gradient of sub-inhibitory to inhibitory concentrations,E. coli MG1655 [3],did not change
same,MIC50,E. coli MG1655 [4],1.6 µg/mL
